# Test results from patent publication US20210403866A1, “ENHANCED DENDRITIC CELL IMMUNE ACTIVATION BY COMBINED INHIBITION OF NR2F6 WITH CANNIBIDIOL” (Regen Biopharma, Inc., priority 2019, published 2021).
# Columns and labels:
# WT1 mRNA [1] = conditions: mWT1-C1498, compared with DAC treatment; cited from earlier work
# [2] = test system: murine WT1-transfected C1498 (mWT1-C1498); conditions: increasing doses; cited from earlier work
# WT1 mRNA [3] = conditions: human MIAPaCa2 PC cells; cited from earlier work
# WT1 mRNA [4] = conditions: GEM-treated MIAPaCa2-bearing SCID mice; cited from earlier work
# allogeneic T cells [5] = assay: Mixed Lymphocyte Reaction with dendritic cells silenced for NR2F6; assay type: cell-based; conditions: increased amounts of cannabidiol added to dendritic cells silenced for NR2F6; FIG. 2
# Experimental: (§1) Dendritic cells where added to allogeneic T cells in 96 well plates, wherein allogeneic T cells where added at 40,000 cells per plate and the indicated number of dendritic cells added. Culture was performed for 96 hours with tritiated thymidine added at the last 12 hours of culture at a concentration of 1 microcurie per well. Black bars indicate no cannabidiol added to dendritic cells, striped bars indicate 1 micro Molar and white indicate 2 micromolar. […] Results are shown in graph, FIG. 1.
# MLR was performed as in example 1. All cells where silenced for NR2F6. An increase in allostimulatory activity was observed. Results are shown in graph, FIG. 2.
# allogeneic T cells [6] = assay: Mixed Lymphocyte Reaction, dendritic cells added to allogeneic T cells, tritiated thymidine; assay type: cell-based; conditions: cannabidiol 1 and 2 micromolar added to dendritic cells; 40,000 allogeneic T cells; 96 hours culture; FIG. 1
# Experimental: as §1
smiles,measurement,setting,value
"Nc1ncn([C@@H]2O[C@H](CO)[C@@H](O)[C@H]2O)c(=O)n1 [AZA, azacitidine]",up-regulation of WT1 mRNA,WT1 mRNA [1],"induced up-regulation of mRNA, but not to the same degree as with DAC treatment"
same,number of viable cells,[2],decreased the number of viable cells in a dose- or time-dependent manner
"Nc1ccn([C@@H]2O[C@H](CO)[C@@H](O)C2(F)F)c(=O)n1 [GEM, gemcitabine]",WT1 mRNA levels,WT1 mRNA [3],enhanced WT1 mRNA levels
same,WT1 mRNA in tumor tissue,WT1 mRNA [4],increase in WT1 mRNA
C=C(C)[C@@H]1CCC(C)=C[C@H]1c1c(O)cc(CCCCC)cc1O [cannabidiol],allostimulatory activity in MLR,allogeneic T cells [5],dose dependent increase in allostimulatory activity
same,T cell activation in Mixed Lymphocyte Reaction,allogeneic T cells [6],dose dependent suppression of T cell activation
